Results from PMC12583704 (Signal Transduction and Targeted Therapy, 2025).

Test: Phase 1 study NCT03594422: adverse events graded by NCI CTCAE v4.03
Assay type: in vivo, human
Procedure: Part 1 was a dose-escalation study to determine the recommended phase 2 dose (RP2D) in solid tumors. […] The initial design was a 3 + 3 dose escalation from 20 mg, but the protocol was amended to randomly enroll and assign patients to starting doses of 30, 40, and 50 mg on the basis of safety data acquired in the CML trial.[20] […] An interactive web response system was used for randomization. Part 2 was a nonrandomized study focusing on patients with SDH-deficient GISTs. […] On the basis of preliminary data from adult patients, adolescent patients with advanced wild-type GISTs were also included in Part 2. The dosage for adolescents was adjusted according to their body weights.
AEs were evaluated at each follow-up visit: on Days 1, 8, 15, and 22 during Cycles 1 and 2; and on Days 1 and 15 in Cycle 3 and all subsequent cycles, up to 30 days after the final dose. All AEs were graded according to the National Cancer Institute Common Terminology Criteria for Adverse Events v4.03. Clinical laboratory investigations for routine blood examinations and serum chemistry parameters were performed during every cycle (on Day 1), during Cycles 1 and 2 (on Days 8, 15, and 22), and 30 days after the last dose of treatment. Urinalysis, coagulation, cardiac troponin I/T, lipase, amylase, and electrocardiographic evaluations were conducted at baseline; during Cycles 1 and 2 (on Days 1 and 15); during Cycles 3, 5, 7, and 9; every three cycles after Cycle 9 (on Day 1); and 14 days after the last dose of treatment. All patients underwent tumor imaging for response assessment via computed tomography or magnetic resonance imaging at screening and every two cycles (8 weeks) until progression or discontinuation. Target and nontarget lesions were assessed per the Response Evaluation Criteria in Solid Tumors version 1.1 (RECIST v1.1).

Cc1ccc(C(=O)Nc2ccc(CN3CCN(C)CC3)c(C(F)(F)F)c2)cc1C#Cc1cnc2[nH]ncc2c1 [Olverembatinib, 3-[(1H-pyrazolo[3,4-b]pyridin-5-yl)ethynyl]-4-methyl-N-{4-[(4-methylpiperazin-1-yl)methyl]-3-(trifluoromethyl)phenyl]benzamide]
TRAE: AST increased (30 mg (n = 15), Any grade): 5 (33.3) n (%) | TRAE: Anemia (30 mg (n = 15), Any grade): 1 (6.7) n (%) | TRAE: Blood creatinine increased (30 mg (n = 15), Any grade): 3 (20.0) n (%) | TRAE: Constipation (30 mg (n = 15), Any grade): 4 (26.7) n (%) | TRAE: Fatigue (30 mg (n = 15), Any grade): 4 (26.7) n (%) | TRAE: Hypoalbuminemia (30 mg (n = 15), Any grade): 4 (26.7) n (%) | TRAE: Leukocyte count increased (30 mg (n = 15), Any grade): 6 (40.0) n (%) | TRAE: Melanocytic nevus (30 mg (n = 15), Any grade): 3 (20.0) n (%) | TRAE: Neutrophil count increased (30 mg (n = 15), Any grade): 6 (40.0) n (%) | TRAE: Platelet count increased (30 mg (n = 15), Any grade): 1 (6.7) n (%) | TRAE: Pyrexia (30 mg (n = 15), Any grade): 1 (6.7) n (%) | TEAE: Abdominal pain (30 mg (n = 15), Grade 3-5): 1 (6.7) n (%) | TEAE: Alanine aminotransferase increased (30 mg (n = 15), Grade 3-5): 0 n (%) | TEAE: Anemia (30 mg (n = 15), Grade 3-5): 1 (6.7) n (%) | TEAE: Aspartate aminotransferase increased (30 mg (n = 15), Grade 3-5): 0 n (%) | TEAE: C-reactive protein increased (30 mg (n = 15), Grade 3-5): 0 n (%) | TEAE: Constipation (30 mg (n = 15), Grade 3-5): 0 n (%) | TEAE: Fatigue (30 mg (n = 15), Grade 3-5): 0 n (%) | TEAE: Hyperuricemia (30 mg (n = 15), Grade 3-5): 1 (6.7) n (%) | TEAE: Hypoalbuminemia (30 mg (n = 15), Grade 3-5): 0 n (%) | TEAE: Leukocyte count increased (30 mg (n = 15), Grade 3-5): 0 n (%) | TEAE: Melanocytic nevus (30 mg (n = 15), Grade 3-5): 0 n (%) | TEAE: Neutrophil count increased (30 mg (n = 15), Grade 3-5): 0 n (%) | TEAE: Pyrexia (30 mg (n = 15), Grade 3-5): 0 n (%) | TEAEs (30 mg (n = 15), Grade 3-5): 5 (33.3) n (%) | TRAE: ALT increased (30 mg (n = 15), Grade 3-5): 0 n (%) | TRAE: AST increased (30 mg (n = 15), Grade 3-5): 0 n (%) | TRAE: Anemia (30 mg (n = 15), Grade 3-5): 0 n (%) | TRAE: Blood creatinine increased (30 mg (n = 15), Grade 3-5): 0 n (%) | TRAE: Constipation (30 mg (n = 15), Grade 3-5): 0 n (%) | TRAE: Fatigue (30 mg (n = 15), Grade 3-5): 0 n (%) | TRAE: Hypoalbuminemia (30 mg (n = 15), Grade 3-5): 0 n (%) | TRAE: Leukocyte count increased (30 mg (n = 15), Grade 3-5): 0 n (%) | TRAE: Melanocytic nevus (30 mg (n = 15), Grade 3-5): 0 n (%) | TRAE: Neutrophil count increased (30 mg (n = 15), Grade 3-5): 0 n (%) | TRAE: Platelet count increased (30 mg (n = 15), Grade 3-5): 0 n (%) | TRAE: Pyrexia (30 mg (n = 15), Grade 3-5): 0 n (%) | TEAE: Abdominal pain (40 mg (n = 32), Any grade): 7 (21.9) n (%) | TEAE: Alanine aminotransferase increased (40 mg (n = 32), Any grade): 13 (40.6) n (%) | TEAE: Anemia (40 mg (n = 32), Any grade): 14 (43.8) n (%) | TEAE: Aspartate aminotransferase increased (40 mg (n = 32), Any grade): 14 (43.8) n (%) | TEAE: C-reactive protein increased (40 mg (n = 32), Any grade): 8 (25.0) n (%) | TEAE: Constipation (40 mg (n = 32), Any grade): 13 (40.6) n (%) | TEAE: Fatigue (40 mg (n = 32), Any grade): 11 (34.4) n (%) | TEAE: Hyperuricemia (40 mg (n = 32), Any grade): 17 (53.1) n (%) | TEAE: Hypoalbuminemia (40 mg (n = 32), Any grade): 5 (15.6) n (%) | TEAE: Leukocyte count increased (40 mg (n = 32), Any grade): 15 (46.9) n (%) | TEAE: Melanocytic nevus (40 mg (n = 32), Any grade): 10 (31.3) n (%) | TEAE: Neutrophil count increased (40 mg (n = 32), Any grade): 12 (37.5) n (%) | TEAE: Pyrexia (40 mg (n = 32), Any grade): 17 (53.1) n (%) | TEAEs (40 mg (n = 32), Any grade): 32 (100.0) n (%) | TRAE: ALT increased (40 mg (n = 32), Any grade): 11 (34.4) n (%) | TRAE: AST increased (40 mg (n = 32), Any grade): 12 (37.5) n (%) | TRAE: Anemia (40 mg (n = 32), Any grade): 4 (12.5) n (%) | TRAE: Blood creatinine increased (40 mg (n = 32), Any grade): 5 (15.6) n (%) | TRAE: Constipation (40 mg (n = 32), Any grade): 13 (40.6) n (%) | TRAE: Fatigue (40 mg (n = 32), Any grade): 9 (28.1) n (%) | TRAE: Hypoalbuminemia (40 mg (n = 32), Any grade): 3 (9.4) n (%) | TRAE: Leukocyte count increased (40 mg (n = 32), Any grade): 12 (37.5) n (%) | TRAE: Melanocytic nevus (40 mg (n = 32), Any grade): 8 (25.0) n (%) | TRAE: Neutrophil count increased (40 mg (n = 32), Any grade): 9 (28.1) n (%) | TRAE: Platelet count increased (40 mg (n = 32), Any grade): 4 (12.5) n (%) | TRAE: Pyrexia (40 mg (n = 32), Any grade): 14 (43.8) n (%) | TEAE: Abdominal pain (40 mg (n = 32), Grade 3-5): 0 n (%) | TEAE: Alanine aminotransferase increased (40 mg (n = 32), Grade 3-5): 0 n (%) | TEAE: Anemia (40 mg (n = 32), Grade 3-5): 2 (6.3) n (%) | TEAE: Aspartate aminotransferase increased (40 mg (n = 32), Grade 3-5): 0 n (%) | TEAE: C-reactive protein increased (40 mg (n = 32), Grade 3-5): 0 n (%)
